# Source: patent US12485132B2, “GPX4 inhibitors and senolytic compounds and uses thereof” (Rubedo Life Sciences, Inc., priority 2023, dated 2025)
# System: senescent HEPG2 cells
# Assay: Senescence assay: viability of senescent HEPG2 cells
# Format: cell-based
# Conditions: Homo sapiens, 24-72 hours incubation, viability by CellTiter-Glo or XTT, read-out: Absolute IC50 average HEPG2_SEN IC50
# Description: (§1) Cells were maintained in DMEM media (high glucose, 4 mM L-glutamine, no sodium pyruvate) supplemented with 10% fetal bovine serum in a humidified incubator at 37° C. with 5% carbon dioxide. Senescence was induced via treatment with a sublethal concentration of chemotherapy (bleomycin, gemcitabine, doxorubicin, 5-fluorouridine), followed by a rest period without chemotherapy similarly to what is reported by others in the field (e.g., Aoshiba et al., 2003 Eur Respir J 22:436-443). Senescence was qualified by low EdU (5-ethynyl-2′-deoxyuridine) incorporation and high SA-β-Gal (senescence-associated beta-galactosidase) staining compared to proliferating untreated cells. Senescent cells were plated into 96-well plates at a density of 5-15,000 cells/well. The next day, compounds were added in duplicate across ten different concentrations spanning roughly four Log10 units. Cells were incubated with the compounds for 24-72 hours, at which point viability was quantified using CellTiter-Glo (Promega) or XTT (R&D Systems). The viability for treated cells was determined relative to untreated control cells. The log of the compound concentration vs. normalized mean viability was fit to a four parameters Hill function with variable slope. The bottom was constrained to be greater than zero. The X mean value for Y=50 was interpolated to determine the absolute IC50. The results in Table 2 indicate that many of the compounds are active in cells and can induce a dose dependent decrease in the viability of senescent HEPG2 and A549 cells.
row,IC50 [nM],SMILES
1,10 to 100,"C#CC(F)(F)[C@]1(O)CC[C@H]2[C@@H]3CCC4=C/C(=N/OCCN5CCN(C)CC5)CCC4=C3[C@@H](c3ccc(C4CC4)cc3)C[C@@]21C [Compound 8, (8S,11R,13S,14S,17S,E)-11-(4-cyclopropylphenyl)-17-(1,1-difluoroprop-2-yn-1-yl)-17-hydroxy-13-methyl-1,2,6,7,8,11,12,13,14,15,16,17-dodecahydro-3H-cyclopenta[a]phenanthren-3-one O-(2-(4-methylpiperazin-1-yl)ethyl)oxime]"
2,0.1 to 10,"C#CC(F)(F)[C@]1(O)CC[C@H]2[C@@H]3CCC4=C/C(=N/OCCN5CCOCC5)CCC4=C3[C@@H](c3ccc(C4CC4)cc3)C[C@@]21C [Compound 9, (8S,11R,13S,14S,17S,E)-11-(4-cyclopropylphenyl)-17-(1,1-difluoroprop-2-yn-1-yl)-17-hydroxy-13-methyl-1,2,6,7,8,11,12,13,14,15,16,17-dodecahydro-3H-cyclopenta[a]phenanthren-3-one O-(2-morpholinoethyl)oxime]"
3,10 to 100,"C#CC(F)(F)[C@]1(O)CC[C@H]2[C@@H]3CCC4=CC(=NOCC)CCC4=C3[C@@H](c3ccc(C4CC4)cc3)C[C@@]21C [Compound 16, (8S,11R,13S,14S,17S)-11-(4-cyclopropylphenyl)-17-(1,1-difluoroprop-2-yn-1-yl)-17-hydroxy-13-methyl-1,2,6,7,8,11,12,13,14,15,16,17-dodecahydro-3H-cyclopenta[a]phenanthren-3-one O-ethyl oxime]"

# System: senescent A549 cells
# Assay: Senescence assay: viability of senescent A549 cells
# Format: cell-based
# Conditions: Homo sapiens, 24-72 hours incubation, viability by CellTiter-Glo or XTT, read-out: Absolute IC50 average A549_SEN IC50
# Description: as §1
row,IC50 [nM],SMILES
1,10 to 100,"C#CC(F)(F)[C@]1(O)CC[C@H]2[C@@H]3CCC4=C/C(=N/OCCN5CCNCC5)CCC4=C3[C@@H](c3ccc(C4CC4)cc3)C[C@@]21C [Compound 7, (8S,11R,13S,14S,17S,E)-11-(4-cyclopropylphenyl)-17-(1,1-difluoroprop-2-yn-1-yl)-17-hydroxy-13-methyl-1,2,6,7,8,11,12,13,14,15,16,17-dodecahydro-3H-cyclopenta[a]phenanthren-3-one O-(2-(piperazin-1-yl)ethyl)oxime]"
2,100 to 1000,"C#CC(F)(F)[C@]1(O)CC[C@H]2[C@@H]3CCC4=C/C(=N/OCCN5CCN(C)CC5)CCC4=C3[C@@H](c3ccc(C4CC4)cc3)C[C@@]21C [Compound 8, (8S,11R,13S,14S,17S,E)-11-(4-cyclopropylphenyl)-17-(1,1-difluoroprop-2-yn-1-yl)-17-hydroxy-13-methyl-1,2,6,7,8,11,12,13,14,15,16,17-dodecahydro-3H-cyclopenta[a]phenanthren-3-one O-(2-(4-methylpiperazin-1-yl)ethyl)oxime]"
3,10 to 100,"C#CC(F)(F)[C@]1(O)CC[C@H]2[C@@H]3CCC4=C/C(=N/OCCN5CCOCC5)CCC4=C3[C@@H](c3ccc(C4CC4)cc3)C[C@@]21C [Compound 9, (8S,11R,13S,14S,17S,E)-11-(4-cyclopropylphenyl)-17-(1,1-difluoroprop-2-yn-1-yl)-17-hydroxy-13-methyl-1,2,6,7,8,11,12,13,14,15,16,17-dodecahydro-3H-cyclopenta[a]phenanthren-3-one O-(2-morpholinoethyl)oxime]"
4,10 to 100,"C#CC(F)(F)[C@]1(O)CC[C@H]2[C@@H]3CCC4=CC(=O)CCC4=C3[C@@H](c3ccc(OCC(F)(F)F)cc3)C[C@@]21C [Compound 53, (8S,11R,13S,14S,17S)-17-(1,1-difluoroprop-2-yn-1-yl)-17-hydroxy-13-methyl-11-(4-(2,2,2-trifluoroethoxy)phenyl)-1,2,6,7,8,11,12,13,14,15,16,17-dodecahydro-3H-cyclopenta[a]phenanthren-3-one]"
5,10 to 100,"C#CC(F)(F)[C@]1(O)CC[C@H]2[C@@H]3CCC4=C/C(=N/NC(=O)NC5CC5)CCC4=C3[C@H](c3ccc(OCC(F)(F)F)cc3)C[C@@]21C [Compound 55, (E)-N-cyclopropyl-2-((8S,11S,13S,14S,17S)-17-(1,1-difluoroprop-2-yn-1-yl)-17-hydroxy-13-methyl-11-(4-(2,2,2-trifluoroethoxy)phenyl)-1,2,6,7,8,11,12,13,14,15,16,17-dodecahydro-3H-cyclopenta[a]phenanthren-3-ylidene)hydrazine-1-carboxamide]"
6,10 to 100,"C#CC(F)(F)[C@]1(O)CC[C@H]2[C@@H]3CCC4=C/C(=N/NC(=O)NCC5CC5)CCC4=C3[C@H](c3ccc(S(=O)(=O)C4CC4)cc3)C[C@@]21C [Compound 62, (E)-N-(cyclopropylmethyl)-2-((8S,11S,13S,14S,17S)-11-(4-(cyclopropylsulfonyl)phenyl)-17-(1,1-difluoroprop-2-yn-1-yl)-17-hydroxy-13-methyl-1,2,6,7,8,11,12,13,14,15,16,17-dodecahydro 3H-cyclopenta[a]phenanthren-3-ylidene)hydrazine-1-carboxamide]"
7,10 to 100,"C#CC(F)(F)[C@]1(O)CC[C@H]2[C@@H]3CCC4=C/C(=N/NC(=O)[C@H]5C[C@H](O)C5)CCC4=C3[C@@H](c3ccc(OCC(F)(F)F)cc3)C[C@@]21C [Compound 71, trans-N′-((8S,11R,13S,14S,17S)-17-(1,1-difluoroprop-2-yn-1-yl)-17-hydroxy-13-methyl-11-(4-(2,2,2-trifluoroethoxy)phenyl)-1,2,6,7,8,11,12,13,14,15,16,17-dodecahydro-3H-cyclopenta[a]phenanthren-3-ylidene)-3-hydroxycyclobutane-1-carbohydrazide]"

# Continued, compound first:
row,SMILES,IC50 [nM]
1,"C#CC(F)(F)[C@]1(O)CC[C@H]2[C@@H]3CCC4=CC(=NOCC)CCC4=C3[C@@H](c3ccc(C4CC4)cc3)C[C@@]21C [Compound 16, (8S,11R,13S,14S,17S)-11-(4-cyclopropylphenyl)-17-(1,1-difluoroprop-2-yn-1-yl)-17-hydroxy-13-methyl-1,2,6,7,8,11,12,13,14,15,16,17-dodecahydro-3H-cyclopenta[a]phenanthren-3-one O-ethyl oxime]",100 to 1000
2,"C#CC(F)(F)[C@]1(O)CC[C@H]2[C@@H]3CCC4=C(Cl)C(=O)CCC4=C3[C@H](c3ccc(C4CC4)cc3)C[C@@]21C [Compound 52, (8S,11S,13S,14S,17S)-4-chloro-11-(4-cyclopropylphenyl)-17-(1,1-difluoroprop-2-yn-1-yl)-17-hydroxy-13-methyl-1,2,6,7,8,11,12,13,14,15,16,17-dodecahydro-3H-cyclopenta[a]phenanthren-3-one]",10 to 100
3,"C#CC(F)(F)[C@]1(O)CC[C@H]2[C@@H]3CCC4=CC(=O)CCC4=C3[C@H](c3ccc(OCc4ccc(S(=O)(=O)C(F)(F)F)cc4)cc3)C[C@@]21C [Compound 57, (8S,11S,13S,14S,17S)-17-(1,1-difluoroprop-2-yn-1-yl)-17-hydroxy-13-methyl-11-(4-((4-((trifluoromethyl)sulfonyl)benzyl)oxy)phenyl)-1,2,6,7,8,11,12,13,14,15,16,17-dodecahydro-3H-cyclopenta[a]phenanthren-3-one]",10 to 100
4,"C#CC(F)(F)[C@]1(O)CC[C@H]2[C@@H]3CCC4=C(Cl)C(=O)CCC4=C3[C@H](c3ccc(OCC(F)(F)F)cc3)C[C@@]21C [Compound 59, (8S,11S,13S,14S,17S)-4-chloro-17-(1,1-difluoroprop-2-yn-1-yl)-17-hydroxy-13-methyl-11-(4-(2,2,2-trifluoroethoxy)phenyl)-1,2,6,7,8,11,12,13,14,15,16,17-dodecahydro-3H-cyclopenta[a]phenanthren-3-one]",10 to 100
5,"C#CC(F)(F)[C@]1(O)CC[C@H]2[C@@H]3CCC4=CC(=O)CCC4=C3[C@H](c3ccc(OCC4(C)CCC4)cc3)C[C@@]21C [Compound 60, (8S,11S,13S,14S,17S)-17-(1,1-difluoroprop-2-yn-1-yl)-17-hydroxy-13-methyl-11-(4-((1-methylcyclobutyl)methoxy)phenyl)-1,2,6,7,8,11,12,13,14,15,16,17-dodecahydro-3H-cyclopenta[a]phenanthren-3-one]",0.1 to 10
6,"C#CC(F)(F)[C@]1(O)CC[C@H]2[C@@H]3CCC4=CC(=O)CCC4=C3[C@H](c3ccc(OS(=O)(=O)C(F)(F)F)cc3)C[C@@]21C [Compound 63, 4-((8S,11S,13S,14S,17S)-17-(1,1-difluoroprop-2-yn-1-yl)-17-hydroxy-13-methyl-3-oxo-2,3,6,7,8,11,12,13,14,15,16,17-dodecahydro-1H-cyclopenta[a]phenanthren-11-yl)phenyl trifluoromethanesulfonate]",10 to 100
7,"C#CC(F)(F)[C@]1(O)CC[C@H]2[C@@H]3CCC4=CC(=N[N+](C)(C)C)CCC4=C3[C@H](c3ccc(C4CC4)cc3)C[C@@]21C [Compound 66, 2-((8S,11S,13S,14S,17S)-11-(4-cyclopropylphenyl)-17-(1,1-difluoroprop-2-yn-1-yl)-17-hydroxy-13-methyl-1,2,6,7,8,11,12,13,14,15,16,17-dodecahydro-3H-cyclopenta[a]phenanthren-3-ylidene)-1,1,1-trimethylhydrazin-1-ium]",100 to 1000
8,"C#CC(F)(F)[C@]1(O)CC[C@H]2[C@@H]3CCC4=C/C(=N/OCCN)CCC4=C3[C@H](c3ccc(C4CC4)cc3)C[C@@]21C [Compound 68, 2-((((8S,11S,13S,14S,17S,E)-11-(4-cyclopropylphenyl)-17-(1,1-difluoroprop-2-yn-1-yl)-17-hydroxy-13-methyl-1,2,6,7,8,11,12,13,14,15,16,17-dodecahydro-3H-cyclopenta[a]phenanthren-3-ylidene)amino)oxy)ethan-1-aminium chloride]",10 to 100
9,"C#CC(F)(F)[C@]1(O)CC[C@H]2[C@@H]3CCC4=CC(=O)CCC4=C3[C@@H](c3ccc(OCC4(C)COC4)cc3)C[C@@]21C [Compound 72, (8S,11R,13S,14S,17S)-17-(1,1-difluoroprop-2-yn-1-yl)-17-hydroxy-13-methyl-11-(4-((3-methyloxetan-3-yl)methoxy)phenyl)-1,2,6,7,8,11,12,13,14,15,16,17-dodecahydro-3H-cyclopenta[a]phenanthren-3-one]",10 to 100
10,"C#CC(F)(F)[C@]1(O)CC[C@H]2[C@@H]3CCc4cc(OCCN5CCOCC5)ccc4C3[C@@H](c3ccc(S(=O)(=O)C4CC4)cc3)C[C@@]21C (stereo partly drawn) [Compound 77, (8S,11S,13S,14S,17S)-11-(4-(cyclopropylsulfonyl)phenyl)-17-(1,1-difluoroprop-2-yn-1-yl)-13-methyl-3-(2-morpholinoethoxy)-7,8,9,11,12,13,14,15,16,17-decahydro-6H-cyclopenta[a]phenanthren-17-ol]",≥ 1000
